PMC9447987, “Long-term memory CD8^+ T cells specific for SARS-CoV-2 in individuals who received the BNT162b2 mRNA vaccine” (Nature Communications, 2022)
Read-outs that look alike come from different tables or passages of the source.

How the values were obtained:
[1] = test system: HLA-A*24:02-restricted CD8+ T cells; assay type: cell-based, human
HLA-A*24:02 = HLA-A*24:02 (Homo sapiens, UniProt P04439, D101N/D140Y/D185E/E176V/E190D/F33S/G103R/G107R/I119L/I121M/I306V/K335N/L105A/L180Q/L300P/N151K/N90K/Q86E/Q94H/R106L/R138H/R89G/T104I/T345S/V100E/W191G/Y123F); assay: HLA stabilization assay using RMA-S-A2402 cells; assay type: binding; settings: for MFI, HLA-A2402 (APC), representative staining: RMA-S-A2402 cells, Suppl. Fig. 3b (for Fig. 4a, 4b), peptide(-) 14.8, 26 °C (Maximum) 32.7
[2] = convalescent donor C2, 45.290 weeks since PCR-confirmed diagnosis, […], peptide-pulsed C1R-A2402
[3] = convalescent donor C3, 2.430 weeks since PCR-confirmed diagnosis, […], peptide-pulsed C1R-A2402
[4] = convalescent donor C4, 35.000 weeks since PCR-confirmed diagnosis, […], peptide-pulsed C1R-A2402
[5] = convalescent donor C5, 41.430 weeks since PCR-confirmed diagnosis, […], peptide-pulsed C1R-A2402
[6] = convalescent donor C6, 20.000 weeks since PCR-confirmed diagnosis, […], peptide-pulsed C1R-A2402
[7] = convalescent donor C7, 21.710 weeks since PCR-confirmed diagnosis, […], peptide-pulsed C1R-A2402
[8] = convalescent donor C8, 47.860 weeks since PCR-confirmed diagnosis, […], peptide-pulsed C1R-A2402
[9] = convalescent donor C9, 21.860 weeks since PCR-confirmed diagnosis, […], peptide-pulsed C1R-A2402
[10] = convalescent donor C10, 24.570 weeks since PCR-confirmed diagnosis, […], peptide-pulsed C1R-A2402
[11] = convalescent donor C11, 24.290 weeks since PCR-confirmed diagnosis, […], peptide-pulsed C1R-A2402
[12] = vaccinated donor V1, 19.000 weeks since 2nd dose, […], C1R-A2402 pre-pulsed with 1 μM peptide
[13] = vaccinated donor V2, 9.570 weeks since 2nd dose, […], C1R-A2402 pre-pulsed with 1 μM peptide
[14] = vaccinated donor V3, 8.860 weeks since 2nd dose, […], C1R-A2402 pre-pulsed with 1 μM peptide
[15] = vaccinated donor V4, 10.430 weeks since 2nd dose, […], C1R-A2402 pre-pulsed with 1 μM peptide
[16] = vaccinated donor V5, 10.570 weeks since 2nd dose, […], C1R-A2402 pre-pulsed with 1 μM peptide
[17] = vaccinated donor V6, 9.570 weeks since 2nd dose, […], C1R-A2402 pre-pulsed with 1 μM peptide
[18] = vaccinated donor V7, 10.140 weeks since 2nd dose, […], C1R-A2402 pre-pulsed with 1 μM peptide
[19] = vaccinated donor V8, 9.860 weeks since 2nd dose, […], C1R-A2402 pre-pulsed with 1 μM peptide
[20] = vaccinated donor V9, 20.570 weeks since 2nd dose, […], C1R-A2402 pre-pulsed with 1 μM peptide
[21] = vaccinated donor V10, 2.000 weeks since 2nd dose, […], C1R-A2402 pre-pulsed with 1 μM peptide
[22] = vaccinated donor V11, 1.430 weeks since 2nd dose, […], C1R-A2402 pre-pulsed with 1 μM peptide
[23] = vaccinated donor V12, 1.000 weeks since 2nd dose, […], C1R-A2402 pre-pulsed with 1 μM peptide
[24] = vaccinated donor V13, 9.000 weeks since 2nd dose, […], C1R-A2402 pre-pulsed with 1 μM peptide
[25] = vaccinated donor V14, 2.000 weeks since 2nd dose, […], C1R-A2402 pre-pulsed with 1 μM peptide
[26] = vaccinated donor V15, 6.860 weeks since 2nd dose, […], C1R-A2402 pre-pulsed with 1 μM peptide
[27] = vaccinated donor V16, 8.860 weeks since 2nd dose, […], C1R-A2402 pre-pulsed with 1 μM peptide
[28] = vaccinated donor V17, 4.140 weeks since 2nd dose, […], C1R-A2402 pre-pulsed with 1 μM peptide

Row | Sequence | IFNg-producing cells among CD8 T cells (%) [1, 2] [%] | IFNg-producing cells among CD8 T cells (%) [1, 3] [%] | IFNg-producing cells among CD8 T cells (%) [1, 4] [%] | IFNg-producing cells among CD8 T cells (%) [1, 5] [%] | IFNg-producing cells among CD8 T cells (%) [1, 6] [%] | IFNg-producing cells among CD8 T cells (%) [1, 7] [%] | IFNg-producing cells among CD8 T cells (%) [1, 8] [%] | IFNg-producing cells among CD8 T cells (%) [1, 9] [%] | IFNg-producing cells among CD8 T cells (%) [1, 10] [%] | IFNg-producing cells among CD8 T cells (%) [1, 11] [%] | IFNg-producing cells among CD8 T cells (%) [1, 12] [%] | IFNg-producing cells among CD8 T cells (%) [1, 13] [%] | IFNg-producing cells among CD8 T cells (%) [1, 15] [%] | IFNg-producing cells among CD8 T cells (%) [1, 16] [%] | IFNg-producing cells among CD8 T cells (%) [1, 17] [%] | IFNg-producing cells among CD8 T cells (%) [1, 18] [%] | IFNg-producing cells among CD8 T cells (%) [1, 19] [%] | IFNg-producing cells among CD8 T cells (%) [1, 20] [%] | IFNg-producing cells among CD8 T cells (%) [1, 21] [%] | IFNg-producing cells among CD8 T cells (%) [1, 22] [%] | further results
1 | AYSNNSIAI [S-AI9] | 0.000 | 0.037 | 0.000 | 0.000 | 0.000 | 0.180 | 0.160 | 0.510 | 0.000 | 0.000 | 0.918 | 0 | 0 | 0.54 | 0.014 | 0 | 0 | 0.488 | 0 | 0.134 | IFNg-producing cells among CD8 T cells (%) [1, 14]: 0%; IFNg-producing cells among CD8 T cells (%) [1, 23]: 0%; IFNg-producing cells among CD8 T cells (%) [1, 24]: 0.166%; IFNg-producing cells among CD8 T cells (%) [1, 25]: 0%; IFNg-producing cells among CD8 T cells (%) [1, 26]: 0%; IFNg-producing cells among CD8 T cells (%) [1, 27]: 0%; IFNg-producing cells among CD8 T cells (%) [1, 28]: 0%; MFI, HLA-A2402 (APC), representative staining (HLA-A*24:02): 36.2
2 | EYVSQPFLM [S-EM9] | 0.455 | 0.097 | 0.355 | 0.063 | 0.000 | 0.160 | 0.480 | 0.000 | 0.650 | 0.000 | 0.75 | 0.88 | 0 | 0.271 | 0.032 | 0 | 0 | 0 | 0.23 | 0.827 | IFNg-producing cells among CD8 T cells (%) [1, 14]: 0.063%; IFNg-producing cells among CD8 T cells (%) [1, 23]: 0%; IFNg-producing cells among CD8 T cells (%) [1, 24]: 0.062%; IFNg-producing cells among CD8 T cells (%) [1, 25]: 0%; IFNg-producing cells among CD8 T cells (%) [1, 26]: 0%; IFNg-producing cells among CD8 T cells (%) [1, 27]: 0.187%; IFNg-producing cells among CD8 T cells (%) [1, 28]: 0%; MFI, HLA-A2402 (APC), representative staining (HLA-A*24:02): 38.7
3 | RFDNPVLPF [S-RF9] | 0.770 | 0.050 | 1.110 | 0.000 | 0.000 | 0.000 | 0.000 | 0.000 | 0.000 | 0.000 | 0 | 0.296 | 0.333 | 0.15 | 0 | 0 | 0 | 0.769 | 0 | 0 | IFNg-producing cells among CD8 T cells (%) [1, 23]: 0.495%; IFNg-producing cells among CD8 T cells (%) [1, 24]: 0.076%; IFNg-producing cells among CD8 T cells (%) [1, 25]: 0.633%; IFNg-producing cells among CD8 T cells (%) [1, 26]: 0%; IFNg-producing cells among CD8 T cells (%) [1, 27]: 0.051%; IFNg-producing cells among CD8 T cells (%) [1, 28]: 0%; MFI, HLA-A2402 (APC), representative staining (HLA-A*24:02): 10.5; binding to HLA-A*24:02 (in words) (HLA-A*24:02; […], 16 peptides tested at 100 μM): did not bind
4 | YYVGYLQPRTF [S-YF11] | 0.461 | 0.120 | 0.300 | 0.738 | 0.200 | 0.450 | 0.930 | 0.000 | 0.090 | 0.000 | 0.469 | 0.861 | 0 | 0 | 0.019 | 0 | 0 | 0 | 0 | 0 | IFNg-producing cells among CD8 T cells (%) [1, 14]: 0.031%; IFNg-producing cells among CD8 T cells (%) [1, 23]: 0%; IFNg-producing cells among CD8 T cells (%) [1, 24]: 0.015%; IFNg-producing cells among CD8 T cells (%) [1, 25]: 0%; IFNg-producing cells among CD8 T cells (%) [1, 26]: 0.234%; IFNg-producing cells among CD8 T cells (%) [1, 27]: 0.141%; IFNg-producing cells among CD8 T cells (%) [1, 28]: 0.134%; MFI, HLA-A2402 (APC), representative staining (HLA-A*24:02): 26.7
5 | RVYSTGSNVF [S-RF10] | 1.394 | 0.025 | 0.000 | 0.000 | 0.000 | 0.000 | 0.600 | 0.000 | 0.420 | 0.000 | 0 | 0 | 0.522 | 1.045 | 0 | 0 | 0.127 | 0 | 0.033 | 0.679 | Freq of responder (%) ([1]; of 17 vaccinated HLA-A*24:02+ individuals (Fig. 4b)): 5.9%; Resp: number of responders (individuals with epitope-specific CD8+ T cells) ([1]; of 17 vaccinated HLA-A*24:02+ individuals, […], 1 μM peptide): one; IFNg-producing cells among CD8 T cells (%) [1, 14]: 0.19%; IFNg-producing cells among CD8 T cells (%) [1, 23]: 0.143%; IFNg-producing cells among CD8 T cells (%) [1, 24]: 0.275%; IFNg-producing cells among CD8 T cells (%) [1, 25]: 0.249%; IFNg-producing cells among CD8 T cells (%) [1, 26]: 0.267%; IFNg-producing cells among CD8 T cells (%) [1, 27]: 0.199%; IFNg-producing cells among CD8 T cells (%) [1, 28]: 0%; MFI, HLA-A2402 (APC), representative staining (HLA-A*24:02): 48.0
6 | VFKNIDGYF [S-VF9] | 0.300 | 0.050 | 1.030 | 0.000 | 0.310 | 0.000 | 0.370 | 0.490 | 0.000 | 0.000 | 0 | 0 | 0.114 | 0.154 | 0 | 0.163 | 0 | 0 | 0 | 0 | IFNg-producing cells among CD8 T cells (%) [1, 14]: 0%; IFNg-producing cells among CD8 T cells (%) [1, 23]: 0.427%; IFNg-producing cells among CD8 T cells (%) [1, 24]: 0%; IFNg-producing cells among CD8 T cells (%) [1, 25]: 0.009%; IFNg-producing cells among CD8 T cells (%) [1, 26]: 0%; IFNg-producing cells among CD8 T cells (%) [1, 27]: 0.255%; IFNg-producing cells among CD8 T cells (%) [1, 28]: 0.147%; MFI, HLA-A2402 (APC), representative staining (HLA-A*24:02): 38.0
